Laboratory results reported in the NIST ThermoML archive (doi:10.1016/j.tca.2015.06.017).
± gives the expanded uncertainty stated by the source.

Assay: xn = mol fraction of the nth substance listed
Settings: Liquid, Vibrating tube method

CCCCCl [1-chlorobutane] + CCCCCCC
mass density [kg/m3]
Settings	303.15 K	313.15 K
100 kPa, x2 = 0.0508	860.95 ± 0.24	849.81 ± 0.24
100 kPa, x2 = 0.0994	847.86 ± 0.24	836.88 ± 0.24
100 kPa, x2 = 0.2013	822 ± 0.24	811.33 ± 0.24
100 kPa, x2 = 0.3015	798.55 ± 0.24	788.17 ± 0.24
100 kPa, x2 = 0.4008	777.02 ± 0.24	766.92 ± 0.24
100 kPa, x2 = 0.5026	756.58 ± 0.24	746.79 ± 0.25
100 kPa, x2 = 0.6012	738.17 ± 0.25	728.67 ± 0.25
100 kPa, x2 = 0.7003	720.97 ± 0.25	711.73 ± 0.25
100 kPa, x2 = 0.7995	704.97 ± 0.25	695.88 ± 0.25
100 kPa, x2 = 0.9011	689.64 ± 0.25	680.8 ± 0.25
100 kPa, x2 = 0.9494	682.71 ± 0.25	673.98 ± 0.25
2000 kPa, x2 = 0.0508	863.1 ± 0.25	852.16 ± 0.25
2000 kPa, x2 = 0.0994	849.99 ± 0.25	839.22 ± 0.25
2000 kPa, x2 = 0.2013	824.16 ± 0.25	813.71 ± 0.25
2000 kPa, x2 = 0.3015	800.7 ± 0.26	790.49 ± 0.26
2000 kPa, x2 = 0.4008	779.13 ± 0.26	769.27 ± 0.26
2000 kPa, x2 = 0.5026	758.72 ± 0.26	749.1 ± 0.26
2000 kPa, x2 = 0.6012	740.28 ± 0.26	730.92 ± 0.26
2000 kPa, x2 = 0.7003	723.08 ± 0.27	713.94 ± 0.27
2000 kPa, x2 = 0.7995	707.04 ± 0.27	698.12 ± 0.27
2000 kPa, x2 = 0.9011	691.71 ± 0.27	683.02 ± 0.27
2000 kPa, x2 = 0.9494	684.78 ± 0.27	676.19 ± 0.27
5000 kPa, x2 = 0.0508	866.34 ± 0.26	855.66 ± 0.27
5000 kPa, x2 = 0.0994	853.23 ± 0.27	842.7 ± 0.27
5000 kPa, x2 = 0.2013	827.36 ± 0.27	817.15 ± 0.27
5000 kPa, x2 = 0.3015	803.89 ± 0.28	793.89 ± 0.28
5000 kPa, x2 = 0.4008	782.29 ± 0.28	772.63 ± 0.28
5000 kPa, x2 = 0.5026	761.81 ± 0.29	752.4 ± 0.29
5000 kPa, x2 = 0.6012	743.41 ± 0.29	734.17 ± 0.29
5000 kPa, x2 = 0.7003	726.22 ± 0.3	717.17 ± 0.3
5000 kPa, x2 = 0.7995	710.1 ± 0.3	701.32 ± 0.3
5000 kPa, x2 = 0.9011	694.74 ± 0.31	686.16 ± 0.31
5000 kPa, x2 = 0.9494	687.8 ± 0.31	679.3 ± 0.31
7000 kPa, x2 = 0.0508	868.42 ± 0.27	857.83 ± 0.28
7000 kPa, x2 = 0.0994	855.3 ± 0.28	844.87 ± 0.28
7000 kPa, x2 = 0.2013	829.43 ± 0.28	819.33 ± 0.29
7000 kPa, x2 = 0.3015	805.92 ± 0.29	796.12 ± 0.29
7000 kPa, x2 = 0.4008	784.34 ± 0.3	774.82 ± 0.3
7000 kPa, x2 = 0.5026	763.83 ± 0.31	754.59 ± 0.31
7000 kPa, x2 = 0.6012	745.42 ± 0.31	736.35 ± 0.31
7000 kPa, x2 = 0.7003	728.16 ± 0.32	719.35 ± 0.32
7000 kPa, x2 = 0.7995	712.06 ± 0.32	703.48 ± 0.33
7000 kPa, x2 = 0.9011	696.65 ± 0.33	688.32 ± 0.33
7000 kPa, x2 = 0.9494	689.71 ± 0.33	681.45 ± 0.33
10000 kPa, x2 = 0.0508	871.51 ± 0.29	861.16 ± 0.29
10000 kPa, x2 = 0.0994	858.41 ± 0.29	848.2 ± 0.3
10000 kPa, x2 = 0.2013	832.51 ± 0.3	822.59 ± 0.31
10000 kPa, x2 = 0.3015	808.97 ± 0.31	799.33 ± 0.32
10000 kPa, x2 = 0.4008	787.38 ± 0.32	777.95 ± 0.33
10000 kPa, x2 = 0.5026	766.86 ± 0.33	757.71 ± 0.33
10000 kPa, x2 = 0.6012	748.41 ± 0.34	739.49 ± 0.34
10000 kPa, x2 = 0.7003	731.09 ± 0.35	722.43 ± 0.35
10000 kPa, x2 = 0.7995	714.97 ± 0.35	706.51 ± 0.36
10000 kPa, x2 = 0.9011	699.57 ± 0.36	691.27 ± 0.37
10000 kPa, x2 = 0.9494	692.59 ± 0.37	684.4 ± 0.37
20000 kPa, x2 = 0.0508	881.1 ± 0.33	871.22 ± 0.34
20000 kPa, x2 = 0.0994	867.95 ± 0.34	858.21 ± 0.35
20000 kPa, x2 = 0.2013	841.94 ± 0.36	832.53 ± 0.37
20000 kPa, x2 = 0.3015	818.31 ± 0.38	809.13 ± 0.39
20000 kPa, x2 = 0.4008	796.57 ± 0.4	787.71 ± 0.4
20000 kPa, x2 = 0.5026	775.93 ± 0.41	–
20000 kPa, x2 = 0.6012	757.4 ± 0.43	–
20000 kPa, x2 = 0.7003	740.01 ± 0.44	–
20000 kPa, x2 = 0.7995	723.78 ± 0.46	–
20000 kPa, x2 = 0.9011	708.24 ± 0.47	–
20000 kPa, x2 = 0.9494	701.2 ± 0.48	–
30000 kPa, x2 = 0.0508	889.77 ± 0.36	–
30000 kPa, x2 = 0.0994	876.56 ± 0.38	–
30000 kPa, x2 = 0.2013	850.48 ± 0.41	–
30000 kPa, x2 = 0.3015	826.73 ± 0.44	–
30000 kPa, x2 = 0.4008	804.94 ± 0.46	–
30000 kPa, x2 = 0.5026	784.21 ± 0.49	–
30000 kPa, x2 = 0.6012	765.55 ± 0.51	–
30000 kPa, x2 = 0.7003	748.07 ± 0.53	–
30000 kPa, x2 = 0.7995	731.77 ± 0.55	–
30000 kPa, x2 = 0.9011	716.14 ± 0.57	–
30000 kPa, x2 = 0.9494	709.05 ± 0.58	–
40000 kPa, x2 = 0.0508	897.85 ± 0.39	–
40000 kPa, x2 = 0.0994	884.61 ± 0.41	–
40000 kPa, x2 = 0.2013	858.37 ± 0.45	–
40000 kPa, x2 = 0.3015	834.56 ± 0.49	–
40000 kPa, x2 = 0.4008	812.66 ± 0.53	–
40000 kPa, x2 = 0.5026	791.81 ± 0.56	–
40000 kPa, x2 = 0.6012	773.04 ± 0.59	–
40000 kPa, x2 = 0.7003	755.46 ± 0.62	–
40000 kPa, x2 = 0.7995	739 ± 0.65	–
40000 kPa, x2 = 0.9011	723.24 ± 0.67	–
40000 kPa, x2 = 0.9494	716.11 ± 0.68	–
50000 kPa, x2 = 0.0508	905.34 ± 0.42	–
50000 kPa, x2 = 0.0994	892.06 ± 0.44	–
50000 kPa, x2 = 0.2013	865.75 ± 0.49	–
50000 kPa, x2 = 0.3015	841.81 ± 0.54	–
50000 kPa, x2 = 0.4008	819.81 ± 0.58	–
50000 kPa, x2 = 0.5026	798.87 ± 0.63	–
50000 kPa, x2 = 0.6012	780.02 ± 0.66	–
50000 kPa, x2 = 0.7003	762.36 ± 0.7	–
50000 kPa, x2 = 0.7995	745.84 ± 0.73	–
50000 kPa, x2 = 0.9011	729.99 ± 0.76	–
50000 kPa, x2 = 0.9494	722.81 ± 0.78	–
60000 kPa, x2 = 0.0508	912.31 ± 0.44	–
60000 kPa, x2 = 0.0994	899.01 ± 0.47	–
60000 kPa, x2 = 0.2013	872.64 ± 0.53	–
60000 kPa, x2 = 0.3015	848.6 ± 0.59	–
60000 kPa, x2 = 0.4008	826.55 ± 0.64	–
60000 kPa, x2 = 0.5026	805.54 ± 0.69	–
60000 kPa, x2 = 0.6012	786.57 ± 0.73	–
60000 kPa, x2 = 0.7003	768.84 ± 0.78	–
60000 kPa, x2 = 0.7995	752.23 ± 0.82	–
60000 kPa, x2 = 0.9011	736.26 ± 0.85	–
60000 kPa, x2 = 0.9494	729.04 ± 0.87	–
65000 kPa, x2 = 0.0508	915.61 ± 0.45	–
65000 kPa, x2 = 0.0994	902.28 ± 0.48	–
65000 kPa, x2 = 0.2013	875.88 ± 0.55	–
65000 kPa, x2 = 0.3015	851.83 ± 0.61	–
65000 kPa, x2 = 0.4008	829.71 ± 0.66	–
65000 kPa, x2 = 0.5026	808.61 ± 0.72	–
65000 kPa, x2 = 0.6012	789.63 ± 0.77	–
65000 kPa, x2 = 0.7003	771.84 ± 0.81	–
65000 kPa, x2 = 0.7995	755.19 ± 0.86	–
65000 kPa, x2 = 0.9011	739.21 ± 0.9	–
65000 kPa, x2 = 0.9494	731.94 ± 0.92	–
